Test results from patent US8927500B2, “Peptidomimetic macrocycles” (Aileron Therapeutics, Inc., priority 2012, dated 2015).
Where a SMILES comes first, the peptide text is derived from it. Bridges are numbered along the chain shown (N, C = ends). [ ]: non-standard residue; d: D form. Phe(4-COOH) = N[C@@H](Cc1ccc(C(=O)O)cc1)C(=O)O; R8 = C=CCCCCCC[C@@](C)(N)C(=O)O; Cba = N[C@@H](CC1CCC1)C(=O)O; S5 = C=CCCC[C@](C)(N)C(=O)O; Nle = CCCC[C@H](N)C(=O)O

Key:
[1] = molecular target: T1, MDMX (Homo sapiens, UniProt O15151); experiment: Competitive fluorescence polarization assay for MDMX; type: binding; settings: competitive FP assay; for IC50: read-out: IC50 (MDMX); for Ki: read-out: Ki (MDMX)
T1 sequence (O15151 1-125): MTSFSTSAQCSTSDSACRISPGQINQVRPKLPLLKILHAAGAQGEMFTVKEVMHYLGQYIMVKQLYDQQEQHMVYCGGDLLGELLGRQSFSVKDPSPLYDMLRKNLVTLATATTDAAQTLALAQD

[2] = molecular target: MDM2 (Homo sapiens, UniProt Q00987); experiment: Competitive fluorescence polarization assay for MDM2; type: binding; settings: competitive FP assay, MDM2; for IC50: read-out: IC50 (MDM2); for Ki: read-out: Ki (MDM2)
Sequence of MDM2 (Q00987 1-125): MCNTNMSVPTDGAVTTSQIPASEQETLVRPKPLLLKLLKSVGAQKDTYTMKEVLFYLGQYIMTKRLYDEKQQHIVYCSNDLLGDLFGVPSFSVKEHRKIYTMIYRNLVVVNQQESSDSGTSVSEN

[3] = test system: Caspase 3; experiment: Caspase 3 detection assay in SJSA1 cells; type: cell-based; settings: 48 h, Caspase 3 activation over DMSO-treated cells; for caspase 0.3 uM: 0.3 uM peptide; for caspase 3 uM: 3 uM peptide; for caspase 10 uM: 10 uM peptide; for caspase 30 uM: 30 uM peptide; for caspase 1 uM: 1 uM peptide
[4] = Circular dichroism (CD) analysis of alpha-helicity; type: physicochemical; settings: for Molar Ellipticity 50% TFE (222 in 50% TFE): CD buffer with 50% TFE; for Molar Ellipticity 50% TFE (222 in 50% TFE) / Molar Ellipticity Benign (222 in 0% TFE): 222 nm, 4° C.; for Molar Ellipticity Benign (222 in 0% TFE): benign CD buffer pH 2, 0% TFE; for % Helix benign compared to 50% TFE parent (CD): benign buffer; for Molar Ellipticity TFE-Molar Ellipticity Benign: difference 50% TFE minus benign
Description: To assay the helicity of peptidomimetic macrocycles, the compounds are dissolved in an aqueous solution (e.g. 50 mM potassium phosphate solution at pH 7, or distilled H2O, to concentrations of 25-50 μM). Circular dichroism (CD) spectra are obtained on a spectropolarimeter (e.g., Jasco J-710) using standard measurement parameters (e.g. temperature, 20° C.; wavelength, 190-260 nm; step resolution, 0.5 nm; speed, 20 nm/sec; accumulations, 10; response, 1 sec; bandwidth, 1 nm; path length, 0.1 cm). […] A Peltier temperature controller was used to maintain temperature control of the optical cell. Results are expressed as mean molar ellipticity [0] […] Peptide concentrations were determined by amino acid analysis. Stock solutions of peptides were prepared in benign CD buffer (20 mM phosphoric acid, pH 2). The stocks were used to prepare peptide solutions of 0.05 mg/ml in either benign CD buffer or CD buffer with 50% trifluoroethanol (TFE) for analyses in a 10 mm pathlength cell. […] The average of six scans was reported.

[5] = test system: SJSA-1 cells; experiment: Cell lysis by peptidomimetic macrocycles (LDH release); type: cell-based; settings: 1 h at 37C

| Compound | IC50 [1] | Ki [1] | IC50 [2] | Ki [2] | caspase 0.3 uM [3] | caspase 3 uM [3] | caspase 10 uM [3] | caspase 30 uM [3] | % Helix 50% TFE compared to 50% TFE parent (CD) [4] | Molar Ellipticity 50% TFE (222 in 50% TFE) [4] | Molar Ellipticity Benign (222 in 0% TFE) [4] | % Helix benign compared to 50% TFE parent (CD) [4] | Molar Ellipticity TFE-Molar Ellipticity Benign [4] | 6.25 uM % Lysed cells (1 h LDH) [5] | 25 uM % Lysed cells (1 h LDH) [5] | 50 uM % Lysed cells (1 h LDH) [5] | caspase 1 uM [3] |
| --- | --- | --- | --- | --- | --- | --- | --- | --- | --- | --- | --- | --- | --- | --- | --- | --- | --- |
| CC(=O)N[C@@H](CC(C)C)C(=O)N[C@H](C(=O)N[C@@H](Cc1ccccc1)C(=O)N[C@]1(C)CCCCCCC=CCCC[C@@](C)(C(=O)N[C@@H](C)C(=O)N[C@@H](C)C(=O)N[C@@H](C)C(=O)N[C@H](C)C(N)=O)NC(=O)[C@H](CC(C)C)NC(=O)[C@H](CCC(N)=O)NC(=O)[C@H](C)NC(=O)[C@H](Cc2c[nH]c3ccccc23)NC(=O)[C@H](Cc2ccc(O)cc2)NC(=O)[C@H](C)NC1=O)[C@@H](C)O (single isomer, unassigned) [compound 230] | 10 to 100 nM | < 10 nM | < 10 nM | < 10 nM | 1 | 2 | 3 | 11 | 123.9% | −17974 deg cm2 dmol-1 | −213.2 deg cm2 dmol-1 | 1.5% | −17760.8 deg cm2 dmol-1 | 0.5% | 0% | 3% | – |
| CC(=O)N[C@@H](CC(C)C)C(=O)N[C@H](C(=O)N[C@@H](Cc1ccccc1)C(=O)N[C@]1(C)CCCCCCC=CCCC[C@@](C)(C(=O)N[C@@H](CO)C(=O)N[C@@H](C)C(=O)N[C@@H](C)C(N)=O)NC(=O)[C@H](CC(C)C)NC(=O)[C@H](CCC(N)=O)NC(=O)[C@H](C)NC(=O)[C@H](Cc2c[nH]c3ccccc23)NC(=O)[C@H](Cc2ccc(O)cc2)NC(=O)[C@H](C)NC1=O)[C@@H](C)O [compound 11] | – | – | – | – | 1 | 5 | 23 | 33.5 | 106.1% | −16623.4 deg cm2 dmol-1 | −398.2 deg cm2 dmol-1 | 2.5% | – | −2% | 2% | 3% | – |
| CCCC[C@H](NC(=O)[C@H](CCC(N)=O)NC(=O)[C@H](CCC(N)=O)NC(=O)[C@]1(C)CCCC=CCCCCCC[C@@](C)(NC(=O)[C@H](Cc2ccccc2)NC(C)=O)C(=O)N[C@@H](C)C(=O)N[C@@H](Cc2ccc(O)cc2)C(=O)N[C@@H](Cc2c[nH]c3ccccc23)C(=O)N[C@@H]([C@@H](C)O)C(=O)N[C@@H](C)C(=O)N[C@@H](CC(C)C)C(=O)N1)C(=O)N[C@@H](C(N)=O)C(C)C [compound 41] (Ac-F[R8]AYWTAL[S5]QQ[Nle][dV]-NH2; staple 2-9) | 10 to 100 nM | 10 to 100 nM | 100 to 1000 nM | 10 to 100 nM | – | – | – | – | 136% | −21319.4 deg cm2 dmol-1 | −909 deg cm2 dmol-1 | 5.8% | 20410.4 deg cm2 dmol-1 | – | – | – | – |
| CC(=O)N[C@@H](CC(C)C)C(=O)N[C@H](C(=O)N[C@@H](Cc1ccccc1)C(=O)N[C@]1(C)CCCCCCC=CCCC[C@@](C)(C(=O)N[C@@H](Cc2c[nH]cn2)C(=O)N[C@@H](Cc2c[nH]cn2)C(=O)N[C@@H](CC(C)C)C(=O)N[C@H](C)C(N)=O)NC(=O)[C@H](CC(C)C)NC(=O)[C@H](CCC(N)=O)NC(=O)[C@H](C)NC(=O)[C@H](Cc2c[nH]c3ccccc23)NC(=O)[C@H](Cc2ccc(O)cc2)NC(=O)[C@H](C)NC1=O)[C@@H](C)O [compound 43] (Ac-LTF[R8]AYWAQL[S5]HHL[dA]-NH2; staple 4-11) | 10 to 100 nM | 10 to 100 nM | 10 to 100 nM | < 10 nM | – | – | – | – | 116.4% | −18247.4 deg cm2 dmol-1 | −15334.5 deg cm2 dmol-1 | 97.8% | 2912.9 deg cm2 dmol-1 | 0% | −1% | −1% | – |
| CC(=O)N[C@@H](CC(C)C)C(=O)N[C@H](C(=O)N[C@@H](Cc1ccccc1)C(=O)N[C@]1(C)CCCCCCC=CCCC[C@@](C)(C(=O)N[C@@H](C)C(=O)N[C@@H](C)C(=O)N[C@@H](C)C(=O)N[C@@H](C)C(=O)N[C@H](C)C(N)=O)NC(=O)[C@H](CC(C)C)NC(=O)[C@H](CCC(N)=O)NC(=O)[C@H](C)NC(=O)[C@H](Cc2c[nH]c3ccccc23)NC(=O)[C@H](Cc2ccc(O)cc2)NC(=O)[C@H](C)NC1=O)[C@@H](C)O [compound 233] | – | – | – | – | 6 | 17 | 22 | 23 | 131.2% | −19032.6 deg cm2 dmol-1 | −477.9 deg cm2 dmol-1 | 3.3% | −18554.7 deg cm2 dmol-1 | 2.5% | 3.5% | 6% | 8 |
| CC(=O)N[C@@H](CC(C)C)C(=O)N[C@H](C(=O)N[C@@H](Cc1ccccc1)C(=O)N[C@]1(C)CCCCCC/C=C/CCC[C@@](C)(C(=O)N[C@@H](C)C(=O)N[C@@H](C)C(=O)N[C@@H](C)C(=O)N[C@@H](C)C(=O)N[C@@H](C)C(=O)N[C@H](C)C(N)=O)NC(=O)[C@H](CC2CCC2)NC(=O)[C@H](CCC(N)=O)NC(=O)[C@H](C)NC(=O)[C@H](Cc2c[nH]c3ccccc23)NC(=O)[C@H](Cc2ccc(C(=O)O)cc2)NC(=O)[C@H](CCC(=O)O)NC1=O)[C@@H](C)O [compound 349] (Ac-LTF[R8]E[Phe(4-COOH)]WAQ[Cba][S5]AAAAA[dA]-NH2; staple (E) 4-11) | 10 to 100 nM | < 10 nM | < 10 nM | < 10 nM | 1 | 11 | 16 | 24 | – | – | – | – | – | 0% | 0% | 0% | 8 |
| CC(=O)N[C@@H](CC(C)C)C(=O)N[C@H](C(=O)N[C@@H](Cc1ccccc1)C(=O)N[C@]1(C)CCCCCC/C=C/CCC[C@@](C)(C(=O)N[C@@H](C)C(=O)N[C@@H](C)C(=O)N[C@@H](C)C(=O)N[C@@H](C)C(=O)N[C@@H](C)C(=O)N[C@H](C)C(N)=O)NC(=O)[C@H](CC2CCC2)NC(=O)[C@H](CCC(N)=O)NC(=O)[C@H](CO)NC(=O)[C@H](Cc2c[nH]c3ccccc23)NC(=O)[C@H](Cc2ccc(O)cc2)NC(=O)[C@H](CCC(=O)O)NC1=O)[C@@H](C)O [compound 351] (Ac-LTF[R8]EYWSQ[Cba][S5]AAAAA[dA]-NH2; staple (E) 4-11) | 10 to 100 nM | < 10 nM | < 10 nM | < 10 nM | 3 | 13 | 15 | 24 | – | – | – | – | – | 0% | 0% | 0% | 9 |
